In ChEMBL document CHEMBL1909576, “Continued exploration of biphenylsulfonamide scaffold as a platform for aggrecanase-1 inhibition” (Bioorg Med Chem Lett, 2011):

Key:
[1] = target: T1, A disintegrin and metalloproteinase with thrombospondin motifs 4 (Homo sapiens, UniProt O75173); assay: Inhibition of aggrecanase-1
T1 sequence (O75173 whole entry): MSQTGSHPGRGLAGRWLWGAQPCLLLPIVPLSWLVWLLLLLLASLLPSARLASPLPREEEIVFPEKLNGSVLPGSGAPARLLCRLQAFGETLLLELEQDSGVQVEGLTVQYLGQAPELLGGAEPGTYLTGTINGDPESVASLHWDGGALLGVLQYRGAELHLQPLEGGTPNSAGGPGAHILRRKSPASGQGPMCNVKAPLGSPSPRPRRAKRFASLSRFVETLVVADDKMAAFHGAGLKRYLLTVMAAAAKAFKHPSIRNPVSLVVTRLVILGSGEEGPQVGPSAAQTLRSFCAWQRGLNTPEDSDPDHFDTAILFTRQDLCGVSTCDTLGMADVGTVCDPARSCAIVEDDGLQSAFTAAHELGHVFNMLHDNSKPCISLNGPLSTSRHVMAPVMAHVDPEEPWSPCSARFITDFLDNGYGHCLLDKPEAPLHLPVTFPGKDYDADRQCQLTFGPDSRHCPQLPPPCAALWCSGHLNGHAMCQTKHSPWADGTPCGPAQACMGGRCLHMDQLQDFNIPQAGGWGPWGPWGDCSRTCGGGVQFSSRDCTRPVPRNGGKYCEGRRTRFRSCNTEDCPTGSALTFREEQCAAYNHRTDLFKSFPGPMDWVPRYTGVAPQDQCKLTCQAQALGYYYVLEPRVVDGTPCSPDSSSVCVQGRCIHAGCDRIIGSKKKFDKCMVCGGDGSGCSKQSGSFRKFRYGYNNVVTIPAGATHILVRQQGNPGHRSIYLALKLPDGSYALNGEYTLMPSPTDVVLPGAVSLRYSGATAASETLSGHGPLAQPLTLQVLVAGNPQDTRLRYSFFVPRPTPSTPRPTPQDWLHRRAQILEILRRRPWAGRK

Collagenase 3 = Collagenase 3 (Homo sapiens, UniProt P45452); assay: Inhibition of MMP13
[2] = target: T2, A disintegrin and metalloproteinase with thrombospondin motifs 5 (Homo sapiens, UniProt Q9UNA0); assay: Inhibition of aggrecanase-2
T2 sequence (Q9UNA0 whole entry): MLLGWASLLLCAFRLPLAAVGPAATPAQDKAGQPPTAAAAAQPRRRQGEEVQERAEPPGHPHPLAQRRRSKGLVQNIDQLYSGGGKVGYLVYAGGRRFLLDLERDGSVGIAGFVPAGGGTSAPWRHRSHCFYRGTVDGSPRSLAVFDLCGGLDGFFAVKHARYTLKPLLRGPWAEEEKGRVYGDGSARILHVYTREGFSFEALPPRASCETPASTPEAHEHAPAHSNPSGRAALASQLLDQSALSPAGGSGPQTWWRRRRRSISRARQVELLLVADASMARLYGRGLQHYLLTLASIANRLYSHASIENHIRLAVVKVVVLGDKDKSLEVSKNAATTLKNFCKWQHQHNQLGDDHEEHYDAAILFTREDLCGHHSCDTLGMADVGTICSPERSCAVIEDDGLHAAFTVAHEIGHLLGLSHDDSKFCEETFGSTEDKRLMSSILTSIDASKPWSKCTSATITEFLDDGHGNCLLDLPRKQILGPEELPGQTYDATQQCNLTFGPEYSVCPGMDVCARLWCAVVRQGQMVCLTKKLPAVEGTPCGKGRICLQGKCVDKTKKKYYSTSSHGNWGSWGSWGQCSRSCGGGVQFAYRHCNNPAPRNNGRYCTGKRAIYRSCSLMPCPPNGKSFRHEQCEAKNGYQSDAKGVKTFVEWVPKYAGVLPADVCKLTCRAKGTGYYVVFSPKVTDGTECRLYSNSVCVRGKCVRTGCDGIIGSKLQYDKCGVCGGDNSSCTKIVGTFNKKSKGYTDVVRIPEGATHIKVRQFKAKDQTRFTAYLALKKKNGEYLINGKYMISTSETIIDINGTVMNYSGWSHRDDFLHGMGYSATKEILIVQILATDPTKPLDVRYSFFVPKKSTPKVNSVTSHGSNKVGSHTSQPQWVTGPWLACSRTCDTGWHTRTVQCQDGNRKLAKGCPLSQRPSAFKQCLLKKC

[3] = target: T3, A disintegrin and metalloproteinase with thrombospondin motifs 4 (Bos taurus) (UniProt Q9TT93); assay: Inhibition of aggrecanase 1 in bovine cartilage explant assessed as inhibition of IL1-stimulated proteoglycan degradation at 10 ug/ml
T3 sequence (whole entry): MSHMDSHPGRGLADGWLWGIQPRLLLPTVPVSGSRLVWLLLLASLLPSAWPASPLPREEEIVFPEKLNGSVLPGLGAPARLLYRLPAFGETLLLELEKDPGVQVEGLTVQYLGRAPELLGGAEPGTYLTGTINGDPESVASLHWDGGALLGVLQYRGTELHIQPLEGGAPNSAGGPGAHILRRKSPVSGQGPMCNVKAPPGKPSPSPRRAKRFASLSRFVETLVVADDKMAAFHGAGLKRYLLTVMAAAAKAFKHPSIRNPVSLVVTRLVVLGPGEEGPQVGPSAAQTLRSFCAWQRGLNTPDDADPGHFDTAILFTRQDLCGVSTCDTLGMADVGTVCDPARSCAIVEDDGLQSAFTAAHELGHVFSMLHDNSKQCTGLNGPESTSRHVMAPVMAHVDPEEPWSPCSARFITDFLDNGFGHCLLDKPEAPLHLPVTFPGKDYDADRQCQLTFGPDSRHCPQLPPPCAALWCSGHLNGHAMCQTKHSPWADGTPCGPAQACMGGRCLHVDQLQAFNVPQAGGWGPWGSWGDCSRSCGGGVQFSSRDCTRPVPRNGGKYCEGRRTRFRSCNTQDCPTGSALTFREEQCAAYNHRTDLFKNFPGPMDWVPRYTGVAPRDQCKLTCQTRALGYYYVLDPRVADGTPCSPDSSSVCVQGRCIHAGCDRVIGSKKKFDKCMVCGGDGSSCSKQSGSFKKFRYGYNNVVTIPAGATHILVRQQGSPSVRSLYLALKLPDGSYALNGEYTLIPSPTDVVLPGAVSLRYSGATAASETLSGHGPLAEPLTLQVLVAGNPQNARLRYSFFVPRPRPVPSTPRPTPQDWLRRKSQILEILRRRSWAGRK

[4] = target: T4, A disintegrin and metalloproteinase with thrombospondin motifs 5 (Homo sapiens) (UniProt Q9UNA0); assay: Inhibition of aggrecanase-2 at 200 uM
T4 sequence (whole entry): T2 sequence (Q9UNA0 whole entry)

SMILES | IC50 [1] [nM] | IC50 (Collagenase 3) [nM] | other results
COC(=O)c1cccc(COc2ccc(-c3ccc(S(=O)(=O)N[C@@H](C(=O)O)C(C)C)cc3)cc2)c1 | 760 | 2.6 | –
CC(C)[C@@H](NS(=O)(=O)c1ccc(-c2cccc(CN)c2)cc1)C(=O)O | 7200 | – | –
CC(C)[C@@H](NS(=O)(=O)c1ccc(-c2ccc(OCc3ccccn3)cc2)cc1)C(=O)O | 33000 | – | –
CC(C)[C@@H](NS(=O)(=O)c1ccc(-c2ccc(OCc3ccncc3)cc2)cc1)C(=O)O | 8500 | 1.1 | –
Cc1cc(COc2ccc(-c3ccc(S(=O)(=O)N[C@@H](C(=O)O)C(C)C)cc3)cc2)ccn1 | 2400 | 0.7 | –
CC(=O)Nc1ccc(-c2ccc(S(=O)(=O)N[C@@H](C(=O)O)C(C)C)cc2)cc1 | 100000 | – | –
CC(C)[C@@H](NS(=O)(=O)c1ccc(-c2ccc(OC(N)=O)cc2)cc1)C(=O)O | 4100 | – | –
CC(C)[C@@H](NS(=O)(=O)c1ccc(-c2ccc(OS(=O)(=O)c3ccccc3)cc2)cc1)C(=O)O | 8200 | – | –
CC(=O)N(C)Cc1ccc(-c2ccc(S(=O)(=O)N[C@@H](C(=O)O)C(C)C)cc2)cc1 | > 200000 | – | –
CC(C)[C@@H](NS(=O)(=O)c1ccc(-c2ccc(OC(=O)NCc3ccccc3)cc2)cc1)C(=O)O | 25000 | – | –
CC(C)[C@@H](NS(=O)(=O)c1ccc(-c2ccc(OCc3cccc(C(F)(F)F)c3)cc2)cc1)C(=O)O | 310 | 3.5 | IC50 [2]: 2380 nM; inhibition [3]: 87%
CC(C)[C@@H](NS(=O)(=O)c1ccc(-c2ccc(Oc3ccccc3)cc2)cc1)C(=O)O | 13200 | – | –
CC(C)[C@@H](NS(=O)(=O)c1ccc(-c2ccc(OCc3ccnc4ccccc34)cc2)cc1)C(=O)O | 1000 | 5.2 | –
CC(C)[C@@H](NS(=O)(=O)c1ccc(-c2cccc(CO)c2)cc1)C(=O)O | 2100 | – | –
CC(C)[C@@H](NS(=O)(=O)c1ccc(-c2ccc(OCc3cccc(O)c3)cc2)cc1)C(=O)O | 3700 | 4000 | –
CC(C)[C@@H](NS(=O)(=O)c1ccc(-c2ccc(CNC(=O)c3ccccc3)cc2)cc1)C(=O)O | 100000 | – | –
CC(C)[C@@H](NS(=O)(=O)c1ccc(-c2ccc(OCc3cccc(F)c3)cc2)cc1)C(=O)O | 2600 | 2.2 | –
CC(C)[C@@H](NS(=O)(=O)c1ccc(-c2ccc(OCc3ccnc(C(F)(F)F)c3)cc2)cc1)C(=O)O | 2200 | 1 | –
CC(C)[C@@H](NS(=O)(=O)c1ccc(-c2ccc(OCc3cccnc3)cc2)cc1)C(=O)O | 30000 | – | –
CC(C)[C@@H](NS(=O)(=O)c1ccc(-c2ccc(CO)cc2)cc1)C(=O)O | 15000 | – | –
CC(C)[C@@H](NS(=O)(=O)c1ccc(-c2cccc(C#N)c2)cc1)C(=O)O | 40000 | – | –
CNC(=O)Oc1ccc(-c2ccc(S(=O)(=O)N[C@@H](C(=O)O)C(C)C)cc2)cc1 | 50000 | – | –

SMILES | IC50 [1] [nM] | IC50 (Collagenase 3) [nM] | other results
CC(C)[C@@H](NS(=O)(=O)c1ccc(-c2ccc(OCc3ccc(C#N)cc3)cc2)cc1)C(=O)O | 1400 | 0.1 | –
CC(C)[C@@H](NS(=O)(=O)c1ccc(-c2ccc(OCc3ccccc3C(F)(F)F)cc2)cc1)C(=O)O | 9100 | 24700 | –
CC(C)[C@@H](NS(=O)(=O)c1ccc(-c2ccc(OCc3cccc(C(=O)O)c3)cc2)cc1)C(=O)O | 22000 | 2.7 | –
Cc1cc(COc2ccc(-c3ccc(S(=O)(=O)N[C@@H](C(=O)O)C(C)C)cc3)cc2)c2ccccc2n1 | – | 9.6 | –
CC(=O)NCc1ccc(-c2ccc(S(=O)(=O)N[C@@H](C(=O)O)C(C)C)cc2)cc1 | 420 | 450 | inhibition [3]: 20%; inhibition [4]: 73%
CC(C)[C@@H](NS(=O)(=O)c1ccc(-c2ccc(OCc3cccc4ccccc34)cc2)cc1)C(=O)O | 1400 | 7.1 | –
CC(Oc1ccc(-c2ccc(S(=O)(=O)N[C@@H](C(=O)O)C(C)C)cc2)cc1)c1cccc(C(F)(F)F)c1 (stereo partly drawn) | 2700 | 12 | –
CC(=O)Nc1cccc(-c2ccc(S(=O)(=O)N[C@@H](C(=O)O)C(C)C)cc2)c1 | 20000 | – | –
CC(=O)NCc1cccc(-c2ccc(S(=O)(=O)N[C@@H](C(=O)O)C(C)C)cc2)c1 | > 200000 | – | –
CC(C)[C@@H](NS(=O)(=O)c1ccc(-c2ccc(OCc3cccc(Br)c3)cc2)cc1)C(=O)O | 420 | 1600 | –
CC(C)[C@@H](NS(=O)(=O)c1ccc(-c2ccc(OCC3CCCCC3)cc2)cc1)C(=O)O | > 75000 | – | –
CC(C)[C@@H](NS(=O)(=O)c1ccc(-c2ccc(OCc3cccc(Cl)c3)cc2)cc1)C(=O)O | 400 | 1.4 | –
CC(C)[C@@H](NS(=O)(=O)c1ccc(-c2ccc(OCc3cccc(C(F)(F)F)n3)cc2)cc1)C(=O)O | 4700 | 4300 | –
CC(C)[C@@H](NS(=O)(=O)c1ccc(-c2ccc(OC(=O)Nc3ccccc3)cc2)cc1)C(=O)O | 5600 | – | –
CC(C)[C@@H](NS(=O)(=O)c1ccc(-c2ccc(OCc3ccccc3)cc2)cc1)C(=O)O | – | 5.6 | –
Cc1c(COc2ccc(-c3ccc(S(=O)(=O)N[C@@H](C(=O)O)C(C)C)cc3)cc2)oc2ccccc12 | – | 4 | IC50 [2]: 3700 nM; inhibition [3]: 89%
CC(C)[C@@H](NS(=O)(=O)c1ccc(-c2ccc(OCc3cccc([N+](=O)[O-])c3)cc2)cc1)C(=O)O | 540 | 1.4 | –
CC(C)[C@@H](NS(=O)(=O)c1ccc(-c2ccc(OCc3ccc4ccccc4n3)cc2)cc1)C(=O)O | 10600 | – | –
CC(C)[C@@H](NS(=O)(=O)c1ccc(-c2cccc(C(N)=O)c2)cc1)C(=O)O | 8400 | – | –
CC(C)[C@@H](NS(=O)(=O)c1ccc(-c2ccc(OCc3ccc(C(F)(F)F)cc3)cc2)cc1)C(=O)O | 1900 | 2 | –
CC(C)[C@@H](NS(=O)(=O)c1ccc(-c2ccc(OCc3ccc4ccccc4c3)cc2)cc1)C(=O)O | – | 1.4 | –
